Experimental data from patent US20090048301A1 (IMCLONE SYSTEMS INCORPORATED, priority 2003, published 2009).

Tested on: bovine tubulin
Test: In vitro tubulin polymerization assay (turbidity at 340 nm)
Type: biochemical
Settings: 10 μM compound, 30 minute data point, vs 1% DMSO control
Procedure: Briefly, tubulin polymerization is a kinetic process that is temperature-dependent and requires GTP and was performed as follows. Soluble tubulin dimers polymerize into microtubules upon warming, and polymerization in vitro correlates with an increase in turbidity (measured at 340 nm). Lyophilized bovine tubulin (HTS Tubulin—97% tubulin, <3% MAPs—Cytoskeleton Inc.) was ressuspended in G-PEM buffer (80 mM PIPES pH 7, 1 mM EGTA, 1 mM MgCl2, 1 mM GTP, 5% glycerol) to a final concentration of 3 mg/ml and kept at 4° C. Compounds in 100× stock solutions in DMSO were dotted to pre-warmed 96-well plates (Corning Costar 3696), the plates were transferred to a 37° C. plate reader (SPECTRAmax Plus, Molecular Devices), cold tubulin was added to the wells, and the plates were shaken for mixing. The absorbance at 340 nm was determined at one minute intervals for 30 minutes. Kinetic curves with 30 points each were collected for each compound, and the dynamic range was between 0 and 0.4 OD units. The percentage inhibition values were calculated using the 30 minute data point and based on control samples (treated with 1% DMSO only). The assay is a modified version of the HTS kit sold by Cytoskeleton (1830 S. Acoma St., Denver, Colo.), adapted to maximize throughput and reduce time, without reduction in dynamic range or sensitivity, while retaining the ability to detect compounds that inhibit or enhance tubulin polymerization.
Tubulin polymerization is a kinetic process that is temperature-dependent and requires GTP. Soluble tubulin dimers polymerize into microtubules upon warming, and polymerization in vitro correlates with an increase in turbidity (measured at 340 nm). Liophilized bovine tubulin (HTS Tubulin—97% tubulin, <3% MAPs—Cytoskeleton Inc.) was ressuspended in G-PEM buffer (80 mM PIPES pH 7, 1 mM EGTA, 1 mM MgCl2, 1 mM GTP, 5% glycerol) to a final concentration of 3 mg/ml and kept at 4° C. Compounds in 100× stock solutions in DMSO were dotted to pre-warmed 96-well plates (Corning Costar 3696), the plates were immediately transferred to a 37° C. plate reader (SPECTRAmax Plus, Molecular Devices), cold tubulin was added to the wells, plates were shaken for mixing, and absorbance at 340 nm was read every minute for 30 minutes. Kinetic curves with 30 points each were collected for each compound, and the dynamic range was between 0 and 0.4 OD units. Percentage inhibition values were calculated using the 30 minute data point, based on control samples (treated with 1% DMSO only). This assay is a modified version of the HTS kit sold by Cytoskeleton, adapted to maximize throughput and reduce time, without reduction in dynamic range or sensitivity, while retaining the ability to detect compounds that inhibit or enhance tubulin polymerization.

COc1cc(CNc2cc(C(F)(F)F)ccc2-c2nnc(Nc3ccc4c(c3)OCO4)[nH]2)cc(OC)c1 [Compound 126, Benzo[1,3]dioxol-5-yl-{5-[2-(3,5-dimethoxy-benzylamino)-4-trifluoromethyl-phenyl]-4H-[1,2,4]triazol-3-yl}-amine]
Tubulin Assay: percent inhibition at 10 μM based on 30 minute data: 93%

O=[N+]([O-])c1ccccc1-c1nnc(Nc2ccc3c(c2)OCCO3)[nH]1 [Compound 127a, (2,3-Dihydro-benzo[1,4]dioxin-6-yl)-[5-(2-nitro-phenyl)-4H-[1,2,4]triazol-3-yl]-amine]
Tubulin Assay: percent inhibition at 10 μM based on 30 minute data: 22%

Nc1ccccc1-c1nnc(Nc2ccc3c(c2)OCCO3)[nH]1 [Compound 127b, [5-(2-amino-phenyl)-4H-[1,2,4]triazol-3-yl]-(2,3-dihydro-benzo[1,4]dioxin-6-yl)-amine]
Tubulin Assay: percent inhibition at 10 μM based on 30 minute data: 20%

N#Cc1ccc(S(=O)(=O)Nc2ccccc2-c2nnc(Nc3ccc4c(c3)OCCO4)[nH]2)cc1 [Compound 128, 4-Cyano-N-{2-[5-(2,3-dihydro-benzo[1,4]dioxin-6-ylamino)-4H-[1,2,4]triazol-3-yl]-phenyl}-benzenesulfonamide]
Tubulin Assay: percent inhibition at 10 μM based on 30 minute data: 42%

CS(=O)(=O)c1ccc(-c2nnc(-c3ccccc3NCC3CCOC3)[nH]2)cc1 (stereo not drawn) [Compound 134, {2-[5-(4-Methanesulfonyl-phenyl)-4H-[1,2,4]triazol-3-yl]-phenyl}-(tetrahydro-furan-3-ylmethyl)-amine]
Tubulin Assay: percent inhibition at 10 μM based on 30 minute data: 34%

COc1cc(CNc2ccccc2-c2nnc(-c3cccc(OC)c3)[nH]2)cc(OC)c1 [Compound 135, (3,5-Dimethoxy-benzyl)-{2-[5-(3-methoxy-phenyl)-4H-[1,2,4]triazol-3-yl]-phenyl}-amine]
Tubulin Assay: percent inhibition at 10 μM based on 30 minute data: 23%

COc1cccc(-c2nnc(-c3ccccc3NCc3ccc4[nH]cnc4c3)[nH]2)c1 [Compound 137, (1H-Benzoimidazol-5-ylmethyl)-{2-[5-(3-methoxy-phenyl)-4H-[1,2,4]triazol-3-yl]-phenyl}-amine]
Tubulin Assay: percent inhibition at 10 μM based on 30 minute data: 28%

FC(F)(F)c1ccc(-c2nnc(-c3ccccc3NCc3ccc4c(c3)OCO4)[nH]2)cc1 [Compound 138, Benzo[1,3]dioxol-5-ylmethyl-{2-[5-(4-trifluoromethyl-phenyl)-4H-[1,2,4]triazol-3-yl]-phenyl}-amine]
Tubulin Assay: percent inhibition at 10 μM based on 30 minute data: 28%

FC(F)(F)c1ccc(-c2nnc(-c3ccccc3NCc3ccc4c(c3)OCCO4)[nH]2)cc1 [Compound 139, (2,3-Dihydro-benzo[1,4]dioxin-6-ylmethyl)-{2-[5-(4-trifluoromethyl-phenyl)-4H-[1,2,4]triazol-3-yl]-phenyl}-amine]
Tubulin Assay: percent inhibition at 10 μM based on 30 minute data: 21%

COc1cc(CNc2ccccc2-c2nnc(-c3ccc(C(F)(F)F)cc3)[nH]2)cc(OC)c1 [Compound 140, (3,5-Dimethoxy-benzyl)-{2-[5-(4-trifluoromethyl-phenyl)-4H-[1,2,4]triazol-3-yl]-phenyl}-amine]
Tubulin Assay: percent inhibition at 10 μM based on 30 minute data: 20%

FC(F)(F)Oc1cccc(-c2nnc(-c3ccccc3NCc3ccc4c(c3)OCCO4)[nH]2)c1 [Compound 142, (2,3-Dihydro-benzo[1,4]dioxin-6-ylmethyl)-{2-[5-(3-trifluoromethoxy-phenyl)-4H-[1,2,4]triazol-3-yl]-phenyl}-amine]
Tubulin Assay: percent inhibition at 10 μM based on 30 minute data: 20%

COc1cc(CNc2ccccc2-c2nnc(-c3cccc(OC(F)(F)F)c3)[nH]2)cc(OC)c1 [Compound 143, (3,5-Dimethoxy-benzyl)-{2-[5-(3-trifluoromethoxy-phenyl)-4H-[1,2,4]triazol-3-yl]-phenyl}-amine]
Tubulin Assay: percent inhibition at 10 μM based on 30 minute data: 46%

FC(F)(F)Oc1cccc(-c2nnc(-c3ccccc3NCc3ccc4[nH]cnc4c3)[nH]2)c1 [Compound 144, (1H-Benzoimidazol-5-ylmethyl)-{2-[5-(3-trifluoromethoxy-phenyl)-4H-[1,2,4]triazol-3-yl]-phenyl}-amine]
Tubulin Assay: percent inhibition at 10 μM based on 30 minute data: 86%

Brc1ccc(-c2nnc(-c3ccccc3NCc3ccc4cn[nH]c4c3)[nH]2)cc1 [Compound 146, {2-[5-(4-Bromo-phenyl)-4H-[1,2,4]triazol-3-yl]-phenyl}-(1H-indazol-6-ylmethyl)-amine]
Tubulin Assay: percent inhibition at 10 μM based on 30 minute data: 39%

Brc1ccc(-c2nnc(-c3ccccc3NCc3ccc4[nH]cnc4c3)[nH]2)cc1 [Compound 147, (1H-Benzoimidazol-5-ylmethyl)-{2-[5-(4-bromo-phenyl)-4H-[1,2,4]triazol-3-yl]-phenyl}-amine]
Tubulin Assay: percent inhibition at 10 μM based on 30 minute data: 43%

COc1cccc(-c2nnc(-c3ccccc3NCc3ccc4cn[nH]c4c3)[nH]2)c1 [Compound 149, (1H-Indazol-6-ylmethyl)-{2-[5-(3-methoxy-phenyl)-4H-[1,2,4]triazol-3-yl]-phenyl}-amine]
Tubulin Assay: percent inhibition at 10 μM based on 30 minute data: 26%

FC(F)(F)c1cccc(-c2nnc(-c3ccccc3NCc3ccc4c(c3)OCCO4)[nH]2)c1 [Compound 150, (2,3-Dihydro-benzo[1,4]dioxin-6-ylmethyl)-{2-[5-(3-trifluoromethyl-phenyl)-4H-[1,2,4]triazol-3-yl]-phenyl}-amine]
Tubulin Assay: percent inhibition at 10 μM based on 30 minute data: 24%

COc1cc(CNc2ccccc2-c2nnc(-c3cccc(Br)c3)[nH]2)cc(OC)c1 [Compound 151, {2-[5-(3-Bromo-phenyl)-4H-[1,2,4]triazol-3-yl]-phenyl}-(3,5-dimethoxy-benzyl)-amine]
Tubulin Assay: percent inhibition at 10 μM based on 30 minute data: 42%

FC(F)(F)c1cccc(-c2nnc(-c3ccccc3NCc3ccc4c(c3)OCO4)[nH]2)c1 [Compound 152, Benzo[1,3]dioxol-5-ylmethyl-{2-[5-(3-trifluoromethyl-phenyl)-4H-[1,2,4]triazol-3-yl]-phenyl}-amine]
Tubulin Assay: percent inhibition at 10 μM based on 30 minute data: 73%

CS(=O)(=O)c1ccc(-c2nnc(-c3ccc(C(F)(F)F)cc3NCc3ccncc3)[nH]2)cc1 [Compound 153, {2-[5-(4-Methanesulfonyl-phenyl)-4H-[1,2,4]triazol-3-yl]-5-trifluoromethyl-phenyl}-pyridin-4-ylmethyl-amine]
Tubulin Assay: percent inhibition at 10 μM based on 30 minute data: 54%

COc1ccc(CNc2ncccc2-c2nnc(Nc3ccc4c(c3)OCO4)o2)cc1OC [Compound 158, {3-[5-(Benzo[1,3]dioxol-5-ylamino)-[1,3,4]oxadiazol-2-yl]-pyridin-2-yl}-(3,4-dimethoxy-benzyl)-amine]
Tubulin Assay: percent inhibition at 10 μM based on 30 minute data: 90%

COc1cc(Nc2nnc(-c3cccnc3NCc3ccc(F)c(F)c3)o2)cc(OC)c1OC [Compound 167, (3,4-Difluoro-benzyl)-{3-[5-(3,4,5-trimethoxy-phenylamino)-[1,3,4]oxadiazol-2-yl]-pyridin-2-yl}-amine]
Tubulin Assay: percent inhibition at 10 μM based on 30 minute data: 99%

Fc1cccc(CNc2ncccc2-c2nnc(Nc3ccc4c(c3)OCO4)o2)c1 [Compound 171, {3-[5-(Benzo[1,3]dioxol-5-ylamino)-[1,3,4]oxadiazol-2-yl]-pyridin-2-yl}-(3-fluoro-benzyl)-amine]
Tubulin Assay: percent inhibition at 10 μM based on 30 minute data: 91%

c1cnc(NCC2CCCO2)c(-c2nnc(Nc3ccc4c(c3)OCO4)o2)c1 (stereo not drawn) [Compound 174, {3-[5-(Benzo[1,3]dioxol-5-ylamino)-[1,3,4]oxadiazol-2-yl]-pyridin-2-yl}-(tetrahydro-furan-2-ylmethyl)-amine]
Tubulin Assay: percent inhibition at 10 μM based on 30 minute data: 64%

COc1cc(CNc2ncccc2-c2nnc(Nc3cccc(F)c3)o2)cc(OC)c1 [Compound 184, (3,5-Dimethoxy-benzyl)-{3-[5-(3-fluoro-phenylamino)-[1,3,4]oxadiazol-2-yl]-pyridin-2-yl}-amine]
Tubulin Assay: percent inhibition at 10 μM based on 30 minute data: 23%

COc1ccc(CNc2ncccc2-c2nnc(Nc3cc(OC)c(OC)c(OC)c3)o2)cc1 [Compound 188, (4-Methoxy-benzyl)-{3-[5-(3,4,5-trimethoxy-phenylamino)-[1,3,4]oxadiazol-2-yl]-pyridin-2-yl}-amine]
Tubulin Assay: percent inhibition at 10 μM based on 30 minute data: 56%

NS(=O)(=O)c1cccc(Nc2ncccc2-c2nnc(Nc3ccc4c(c3)OCCO4)o2)c1 [Compound 191, 3-{3-[5-(2,3-Dihydro-benzo[1,4]dioxin-6-ylamino)-[1,3,4]oxadiazol-2-yl]-pyridin-2-ylamino}-benzenesulfonamide]
Tubulin Assay: percent inhibition at 10 μM based on 30 minute data: 28%
